Data reported in ChEMBL document CHEMBL1132596, “Non-peptide corticotropin-releasing hormone antagonists: syntheses and structure-activity relationships of 2-anilinopyrimidines and -triazines” (J Med Chem, 1999).

Experiments:
[1] = molecular target: T1, Corticotropin-releasing factor receptor 1 (Homo sapiens, UniProt P34998); assay: Binding affinity for human recombinant corticotropin releasing factor receptor 1
T1 sequence (P34998 whole entry): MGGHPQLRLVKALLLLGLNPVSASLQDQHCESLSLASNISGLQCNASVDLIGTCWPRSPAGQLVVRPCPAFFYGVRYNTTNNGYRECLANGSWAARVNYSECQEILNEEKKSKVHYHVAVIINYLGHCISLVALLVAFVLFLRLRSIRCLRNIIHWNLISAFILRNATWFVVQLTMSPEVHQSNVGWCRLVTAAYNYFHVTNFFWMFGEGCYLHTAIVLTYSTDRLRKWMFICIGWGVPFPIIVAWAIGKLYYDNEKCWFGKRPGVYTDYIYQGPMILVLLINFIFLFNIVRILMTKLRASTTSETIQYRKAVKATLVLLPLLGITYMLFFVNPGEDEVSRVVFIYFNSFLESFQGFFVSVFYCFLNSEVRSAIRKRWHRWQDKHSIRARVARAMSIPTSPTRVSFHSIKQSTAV

[2] = molecular target: T2, Corticotropin-releasing factor receptor 1 (Rattus norvegicus, UniProt P35353); assay: Binding affinity was measured on rat Corticotropin releasing factor receptor 1
T2 sequence (P35353 whole entry): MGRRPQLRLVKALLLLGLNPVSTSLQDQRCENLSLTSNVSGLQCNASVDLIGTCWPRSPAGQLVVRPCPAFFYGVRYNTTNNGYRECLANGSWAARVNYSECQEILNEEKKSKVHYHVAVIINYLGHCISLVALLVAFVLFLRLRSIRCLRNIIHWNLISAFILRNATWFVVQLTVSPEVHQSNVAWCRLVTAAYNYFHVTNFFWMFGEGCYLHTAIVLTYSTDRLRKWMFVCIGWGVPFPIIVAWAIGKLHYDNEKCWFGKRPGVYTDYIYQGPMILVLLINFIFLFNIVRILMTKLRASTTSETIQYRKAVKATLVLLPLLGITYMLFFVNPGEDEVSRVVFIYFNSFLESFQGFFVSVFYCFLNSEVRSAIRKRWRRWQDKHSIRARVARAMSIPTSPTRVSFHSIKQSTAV

[3] = The maximum concentration of the compound was measured in dog at dose 5 mg/kg after peroral administration.; format: ADME, organism-based, Canis lupus familiaris; set-up: dose 5 mg/kg, route oral; details: in vivo, po
[4] = The Tmax is the time taken to reach maximum concentration was measured in rat at dose 1 mg/kg after peroral administration.; format: ADME, organism-based; set-up: dose 1 mg/kg, route oral; details: in vivo, po
[5] = The clearance was measured in rat at dose 12 mg/kg after intravenous administration.; format: ADME, organism-based; set-up: dose 12 mg/kg, route intravenous; details: in vivo
[6] = Bioavailability in rat (dose 30 mg/kg i.p.); format: ADME, organism-based; details: in vivo, ip
[7] = The clearance was measured in rat at dose 1 mg/kg after intravenous administration.; format: ADME, organism-based; set-up: dose 1 mg/kg, route intravenous; details: in vivo
[8] = The Tmax is the time taken to reach maximum concentration was measured in rat at dose 30 mg/kg after peroral administration.; format: ADME, organism-based; set-up: dose 30 mg/kg, route oral; details: in vivo, po
[9] = The clearance was measured in dog at dose 5 mg/kg after intravenous administration.; format: ADME, organism-based, Canis lupus familiaris; set-up: dose 5 mg/kg, route intravenous; details: in vivo
[10] = The bioavailability measured as F(%) in dog at dose 5 mg/kg after peroral administration.; format: ADME, organism-based, Canis lupus familiaris; details: in vivo, po
[11] = The half life period was measured in dog at dose 5 mg/kg after intravenous administration.; format: ADME, organism-based, Canis lupus familiaris; set-up: dose 5 mg/kg, route intravenous; details: in vivo
[12] = The half life period was measured in rat at dose 1 mg/kg after intravenous administration.; format: ADME, organism-based; set-up: dose 1 mg/kg, route intravenous; details: in vivo
[13] = The Tmax is the time taken to reach maximum concentration was measured in rat at dose 30 mg/kg after intraperitoneal administration.; format: ADME, organism-based; set-up: dose 30 mg/kg, route intraperitoneal; details: in vivo, ip
[14] = The maximum concentration of the compound was measured in rat at dose 30 mg/kg after intraperitoneal administration.; format: ADME, organism-based; set-up: dose 30 mg/kg, route intraperitoneal; details: in vivo, ip
[15] = The maximum concentration of the compound was measured in rat at dose 30 mg/kg after peroral administration.; format: ADME, organism-based; set-up: dose 30 mg/kg, route oral; details: in vivo, po
[16] = The maximum concentration of the compound was measured in rat at dose 1 mg/kg after peroral administration.; format: ADME, organism-based; set-up: dose 1 mg/kg, route oral; details: in vivo, po
[17] = The half life period was measured in rat at dose 12 mg/kg after intravenous administration.; format: ADME, organism-based; set-up: dose 12 mg/kg, route intravenous; details: in vivo
[18] = The Tmax is the time taken to reach maximum concentration was measured in dog at dose 5 mg/kg after peroral administration.; format: ADME, organism-based, Canis lupus familiaris; set-up: dose 5 mg/kg, route oral; details: in vivo, po
[19] = the half life period was measured in rat at dose 30 mg/kg after intravenous administration.; format: ADME, organism-based; set-up: dose 30 mg/kg, route intravenous; details: in vivo
[20] = The maximum concentration of the compound was measured in rat at dose 30 mg/kg after intravenous administration.; format: ADME, organism-based; set-up: dose 30 mg/kg, route intravenous; details: in vivo
[21] = Tmax is the time taken to reach maximum concentration was measured on rat at dose 30 mg/kg after intraperitoneal administration.; format: ADME, organism-based; set-up: dose 30 mg/kg, route intraperitoneal; details: in vivo, ip
[22] = Tmax is the time taken to reach maximum concentration was measured on rat at dose 30 mg/kg after intravenous administration.; format: ADME, organism-based; set-up: dose 30 mg/kg, route intravenous; details: in vivo
[23] = The clearance was measured in rat at dose 30 mg/kg after intravenous administration.; format: ADME, organism-based; set-up: dose 30 mg/kg, route intravenous; details: in vivo
[24] = The bioavailability measured as F(%) on rat at dose 30 mg/kg […].; format: ADME, organism-based; details: in vivo

Ki [1] [nM] | Compound | also measured
3 | C=CCN(CC=C)c1nc(C)nc(N(CC)c2ccc(N(C)C)cc2Br)n1 | –
7 | CCCN(CCC)c1nc(C)nc(N(CC)c2ccc(N(C)C)cc2C)n1 | –
51 | CCN(c1nc(C)cc(C)n1)c1c(Br)cc(C(C)C)cc1SC | –
60 | CCN(c1nc(C)cc(C)n1)c1ccc(OC)cc1SC | –
20 | CCN(c1nc(C)cc(C)n1)c1ccc(N(C)C)cc1SC | –
6 | CCCN(CCC)c1nc(C)nc(N(CC)c2ccc(N(C)C)cc2C(F)(F)F)n1 | –
> 1000 | CCN(c1nc(C)cc(N2CCNCC2)n1)c1ccc(C(C)C)cc1Br | –
35 | CCN(c1nc(C)cc(C)n1)c1ccc(OC)cc1Br | –
4 | CCCN(CCC)c1nc(C)nc(N(CC)c2ccc(C(C)C)cc2Br)n1 | –
11 | CCN(CC)c1cc(C)nc(N(CC)c2ccc(N(C)C)cc2C(F)(F)F)n1 | –
> 100 | CCCCc1ccc(N(CC)c2nc(C)cc(C)n2)c(Br)c1 | –
9 | CCCN(CC1CC1)c1cc(C)nc(N(CC)c2ccc(C(C)C)cc2Br)n1 | –
19 | CCCCN(CC)c1cc(C)nc(N(CC)c2ccc(C(C)C)cc2Br)n1 | –
10 | CCN(CC)c1cc(C)nc(N(CC)c2c(Cl)cc(OC)cc2OC)n1 | –
– | Cc1ccc(N(C)c2nc(C)cc(C)n2)c(Br)c1 | Ki [2]: 1100 nM
48 | CCN(CC)c1cc(C)nc(N(CC)c2c(Br)cc(OC)cc2OC)n1 | –
5 | CCCN(c1cc(C)nc(N(CC)c2ccc(C(C)C)cc2Br)n1)C1CC1 | –
9 | CCN(CC)c1cc(C)nc(N(CC)c2ccc(I)cc2Br)n1 | –
90 | CCN(c1nc(C)cc(C)n1)c1ccc(C(C)=O)cc1SC | –

Ki [1] [nM] | Compound | also measured
5 | CCCN(CCC#N)c1nc(C)nc(N(CC)c2ccc(N(C)C)cc2C(F)(F)F)n1 | –
5 | CCCCN(CC)c1nc(C)nc(N(CC)c2ccc(OC(F)(F)F)cc2Br)n1 | –
5 | CCN(c1nc(C)nc(N(CC2CC2)CC2CC2)n1)c1ccc(N(C)C)cc1C(F)(F)F | –
15 | CCN(CC)c1cc(C)nc(N(CC)c2c(Cl)cc(OC)cc2Cl)n1 | –
17 | CCN(Cc1ccccc1)c1cc(C)nc(N(CC)c2ccc(C(C)C)cc2Br)n1 | –
25 | CCN(c1nc(C)cc(N(CCOC)CCOC)n1)c1ccc(C(C)C)cc1Br | –
> 1000 | CCN(c1nc(C)cc(C)n1)c1ccccc1Br | –
18 | CCN(c1nc(C)nc(N(CCOC)CCOC)n1)c1ccc(C(C)C)cc1Br | –
> 100 | CCN(c1nc(C)cc(C)n1)c1ccc(C(C)(C)C)cc1Br | –
8 | CCCCN(CC)c1cc(C)nc(N(CC)c2ccc(C(C)=O)cc2Br)n1 | –
8 | CCCCN(CCC#N)c1nc(C)nc(N(CC)c2ccc(N(C)C)cc2C)n1 | –
32 | CCN(c1nc(C)nc(N2CCOCC2)n1)c1c(Br)cc(OC)cc1OC | Cmax [3]: 730 nM; Tmax [4]: 0.3 h; clearance [5]: 48.3 mL/min/kg; bioavailability [6]: 47%; clearance [7]: 66.7 mL/min/kg; Tmax [8]: 1.6 h; clearance [9]: 21.7 mL/min/kg; bioavailability [10]: 20%; half-life [11]: 6 h; half-life [12]: 7.6 h; Tmax [13]: 0.3 h; Cmax [14]: 2700 nM; Cmax [15]: 753 nM; Cmax [16]: 21 nM; half-life [17]: 15.6 h; Tmax [18]: 0.5 h
> 100 | CCc1cc(CC)nc(N(CC)c2ccc(C(C)C)cc2Br)n1 | –
6 | CCN(CC)c1nc(C)nc(N(CC)c2ccc(N(C)C)cc2Br)n1 | –
4 | C=CCN(CC=C)c1nc(C)nc(N(CC)c2ccc(C(C)C)cc2Br)n1 | –
29 | CCN(c1nc(C)cc(N2CCCCC2)n1)c1ccc(C(C)C)cc1Br | –
22 | CCN(c1nc(C)cc(N2CCOCC2)n1)c1ccc(C(C)C)cc1Br | –
8 | CCCCN(CC#N)c1nc(C)nc(N(CC)c2ccc(N(C)C)cc2C)n1 | –
41 | CCCCN(Cc1nnnn1C)c1cc(C)nc(N(CC)c2ccc(C(C)C)cc2Br)n1 | –

Compound | Ki [1] [nM] | also measured
CCN(c1nc(C)cc(C)n1)c1c(Br)cc(OC)cc1OC | 12 | half-life [19]: 5.9 h; bioavailability [6]: 4%; Cmax [20]: 1880 nM; Tmax [21]: 1.2 h; Tmax [22]: 0.25 h; clearance [23]: 88.7 mL/min/kg; bioavailability [24]: 26%; Cmax [14]: 366 nM
